Experimental data taken from ChEMBL document CHEMBL1201862, “PubChem BioAssay data set” (2004).
Where a name gives a salt, the structure may show the parent alone. The source made the active and inactive calls.

How the values were obtained:
[1] = molecular target: T1, Mucolipin-3 (Homo sapiens, UniProt Q8TDD5); test: Dose response cell-based high-throughput screening assay for agonists of the transient receptor potential channel ML3 (TRPML3). [Related pubchem assays: 1526, 1424, 1448 ]; format: functional
T1 sequence (Q8TDD5 whole entry): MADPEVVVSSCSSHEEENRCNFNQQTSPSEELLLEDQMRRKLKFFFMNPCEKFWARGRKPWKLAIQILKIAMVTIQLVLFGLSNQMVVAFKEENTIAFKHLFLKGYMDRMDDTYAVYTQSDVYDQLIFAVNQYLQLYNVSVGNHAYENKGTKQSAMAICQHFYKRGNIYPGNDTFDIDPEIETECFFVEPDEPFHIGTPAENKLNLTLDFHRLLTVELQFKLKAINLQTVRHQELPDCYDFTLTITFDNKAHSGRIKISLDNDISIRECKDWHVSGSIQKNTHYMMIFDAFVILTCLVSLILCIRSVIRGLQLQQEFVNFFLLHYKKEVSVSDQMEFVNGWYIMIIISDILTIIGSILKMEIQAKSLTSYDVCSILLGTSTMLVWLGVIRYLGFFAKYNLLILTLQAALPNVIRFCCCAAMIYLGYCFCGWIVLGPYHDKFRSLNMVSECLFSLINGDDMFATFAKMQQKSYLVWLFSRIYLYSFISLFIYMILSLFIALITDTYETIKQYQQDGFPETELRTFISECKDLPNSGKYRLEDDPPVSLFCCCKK

[2] = molecular target: Ion channel NompC (Danio rerio, UniProt Q7T1G6); test: Fluorescence counterscreen assay for TRPML3 agonists: dose response cell-based high-throughput screening assay to identify agonists of the transient receptor potential channel N1 (TRPN1). [Related pubchem assays: 1526, 1424, 1448 ]; format: functional
Ion channel NompC, sequence (Q7T1G6 whole entry): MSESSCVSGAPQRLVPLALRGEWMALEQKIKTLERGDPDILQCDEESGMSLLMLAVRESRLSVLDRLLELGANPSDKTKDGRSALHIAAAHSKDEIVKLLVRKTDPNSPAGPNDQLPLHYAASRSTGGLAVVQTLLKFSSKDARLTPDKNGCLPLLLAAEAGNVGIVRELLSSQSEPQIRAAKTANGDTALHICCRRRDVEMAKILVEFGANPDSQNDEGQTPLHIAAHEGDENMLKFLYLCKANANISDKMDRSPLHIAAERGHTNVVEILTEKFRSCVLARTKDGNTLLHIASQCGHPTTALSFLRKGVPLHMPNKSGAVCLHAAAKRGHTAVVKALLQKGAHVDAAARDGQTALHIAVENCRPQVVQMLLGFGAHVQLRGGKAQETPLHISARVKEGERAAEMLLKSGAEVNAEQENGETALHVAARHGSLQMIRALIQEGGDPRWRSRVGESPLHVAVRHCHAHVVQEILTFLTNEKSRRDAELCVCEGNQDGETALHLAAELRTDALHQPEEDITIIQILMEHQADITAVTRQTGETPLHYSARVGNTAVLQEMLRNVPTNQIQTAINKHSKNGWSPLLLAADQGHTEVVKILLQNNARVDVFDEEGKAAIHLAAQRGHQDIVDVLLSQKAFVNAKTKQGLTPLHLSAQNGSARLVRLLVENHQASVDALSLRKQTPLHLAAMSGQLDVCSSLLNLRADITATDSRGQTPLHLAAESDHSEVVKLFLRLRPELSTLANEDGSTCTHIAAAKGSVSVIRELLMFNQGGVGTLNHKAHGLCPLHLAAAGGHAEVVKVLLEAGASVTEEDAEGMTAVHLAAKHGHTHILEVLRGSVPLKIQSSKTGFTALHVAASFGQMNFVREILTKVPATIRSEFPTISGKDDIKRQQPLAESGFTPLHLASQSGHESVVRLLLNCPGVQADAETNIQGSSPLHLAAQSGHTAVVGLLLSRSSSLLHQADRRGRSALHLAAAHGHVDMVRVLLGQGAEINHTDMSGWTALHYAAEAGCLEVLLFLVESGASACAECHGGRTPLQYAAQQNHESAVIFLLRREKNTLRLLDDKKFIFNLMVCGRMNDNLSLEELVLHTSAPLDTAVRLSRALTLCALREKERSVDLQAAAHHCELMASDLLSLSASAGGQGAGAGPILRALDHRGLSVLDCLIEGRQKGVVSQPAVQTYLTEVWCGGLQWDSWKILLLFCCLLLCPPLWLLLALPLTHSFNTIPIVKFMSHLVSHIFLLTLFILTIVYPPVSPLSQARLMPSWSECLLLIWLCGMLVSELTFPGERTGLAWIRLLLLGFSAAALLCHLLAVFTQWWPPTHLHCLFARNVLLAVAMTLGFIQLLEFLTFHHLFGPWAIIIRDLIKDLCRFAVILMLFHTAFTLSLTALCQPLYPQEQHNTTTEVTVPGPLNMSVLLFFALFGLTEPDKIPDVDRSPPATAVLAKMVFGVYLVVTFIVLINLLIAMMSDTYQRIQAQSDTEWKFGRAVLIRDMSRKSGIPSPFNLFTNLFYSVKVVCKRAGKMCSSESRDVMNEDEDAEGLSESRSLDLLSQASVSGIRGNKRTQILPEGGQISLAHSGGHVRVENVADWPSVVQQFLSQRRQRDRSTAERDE

[3] = molecular target: T2, Heat shock factor protein 1 (Mus musculus, UniProt P38532); test: decrease of HSF1-responsive luciferase luminescence – cell-based, NIH3T3, dose retest, confirmation (AID 2382); format: functional;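 further: NIH3T3 fibroblasts with HSF1-driven luciferase reporter stressed by proteasome inhibitor MG132; luminescence from HSF1-driven luciferase expression after 8 hours of MG132 stress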
T2 sequence (P38532 whole entry): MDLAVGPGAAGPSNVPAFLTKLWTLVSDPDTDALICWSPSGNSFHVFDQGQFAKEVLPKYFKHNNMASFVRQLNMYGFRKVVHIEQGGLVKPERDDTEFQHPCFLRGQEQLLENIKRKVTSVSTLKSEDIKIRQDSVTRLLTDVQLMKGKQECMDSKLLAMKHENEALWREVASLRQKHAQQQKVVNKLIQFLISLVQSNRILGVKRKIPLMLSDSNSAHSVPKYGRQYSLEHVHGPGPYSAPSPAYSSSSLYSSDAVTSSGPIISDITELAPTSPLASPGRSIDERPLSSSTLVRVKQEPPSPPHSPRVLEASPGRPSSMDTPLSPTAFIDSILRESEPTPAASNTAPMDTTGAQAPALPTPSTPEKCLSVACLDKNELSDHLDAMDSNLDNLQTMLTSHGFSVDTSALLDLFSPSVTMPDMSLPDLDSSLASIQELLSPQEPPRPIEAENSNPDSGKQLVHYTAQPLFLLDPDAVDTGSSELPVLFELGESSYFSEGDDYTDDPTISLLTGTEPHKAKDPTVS

[4] = A cytotoxicity screen of small molecule inhibitors of the PhoP region in Salmonella typhi identified in the primary screen. [Related pubchem assays: 1850, 1864, 1985 ]; format: functional
[5] = molecular target: DNA dC->dU-editing enzyme APOBEC-3G (Homo sapiens, UniProt Q9HC16); test: Dose Response confirmation of small molecule APOBEC3G DNA Deaminase Inhibitors via a fluorescence-based single-stranded DNA deaminase assay. [Related pubchem assays (depositor defined):AID493012, AID493028]; format: functional
DNA dC->dU-editing enzyme APOBEC-3G, sequence (Q9HC16 whole entry): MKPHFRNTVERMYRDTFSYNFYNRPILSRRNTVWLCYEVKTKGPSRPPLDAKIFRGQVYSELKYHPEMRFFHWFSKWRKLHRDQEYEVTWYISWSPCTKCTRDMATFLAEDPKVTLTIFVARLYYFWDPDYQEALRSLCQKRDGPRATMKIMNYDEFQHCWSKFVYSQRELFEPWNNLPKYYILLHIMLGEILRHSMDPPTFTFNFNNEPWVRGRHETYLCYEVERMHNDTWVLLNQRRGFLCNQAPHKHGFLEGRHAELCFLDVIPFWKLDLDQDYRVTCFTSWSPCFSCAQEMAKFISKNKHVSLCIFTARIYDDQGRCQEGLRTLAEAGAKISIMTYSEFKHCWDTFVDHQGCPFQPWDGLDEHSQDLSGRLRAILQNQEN

[6] = HEK-293T cell viability reduction – luminescence, B-cell screen hits, cytotoxicity control for BCR NF-kB inhibitor project, dose response (AID 489021); format: functional, cell-based;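 further: HEK-293T cells carrying an NF-kB luciferase reporter; cells exposed to compound for about 14 hours before viability readout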
[7] = system: Streptococcus; test: GAS UMAA2166 growth inhibition – luminescence, BacTiterGlo, counter-screen for streptokinase expression inhibitor project, dose response (AID 1915); format: functional, organism-based;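 further: potency for reduction of bacterial viability or growth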
[8] = Luminescence Cell-Based Dose Retest to Confirm Inhibitors of Cancer Stem Cells. [Related pubchem assays (depositor defined):AID2717, AID2721]; format: functional; conditions: Homo sapiens
[9] = system: Streptococcus sp. 'group A'; test: Streptococcus pyogenes SK(-)GAS viability under kanamycin – luminescence, BacTiterGlo, confirmation, counter-screen for streptokinase expression inhibitor project, dose response (AID 1900); format: functional, organism-based
[10] = molecular target: T3, Streptokinase A (Streptococcus pyogenes serotype M1, UniProt P10520); test: viability-normalized secreted streptokinase activity reduction – plasminogen activation absorbance, OD405, dose response (AID 1914); format: functional, Streptococcus pyogenes M1 GAS;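 further: secreted streptokinase activity via plasminogen activation per viability signal from cell pellet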
T3 sequence (P10520 whole entry): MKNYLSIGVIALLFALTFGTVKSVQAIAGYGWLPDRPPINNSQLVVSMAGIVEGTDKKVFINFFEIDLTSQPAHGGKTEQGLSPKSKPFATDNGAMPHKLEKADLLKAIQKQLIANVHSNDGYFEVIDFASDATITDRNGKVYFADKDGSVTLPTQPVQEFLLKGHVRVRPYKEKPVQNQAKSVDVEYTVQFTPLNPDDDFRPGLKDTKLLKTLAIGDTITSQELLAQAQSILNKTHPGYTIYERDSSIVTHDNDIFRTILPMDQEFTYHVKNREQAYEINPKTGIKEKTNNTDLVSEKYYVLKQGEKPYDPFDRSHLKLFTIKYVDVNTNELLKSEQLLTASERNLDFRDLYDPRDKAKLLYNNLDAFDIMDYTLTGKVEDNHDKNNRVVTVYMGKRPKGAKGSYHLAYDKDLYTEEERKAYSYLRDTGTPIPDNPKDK

[11] = molecular target: Eukaryotic translation initiation factor 4E (Mus musculus, UniProt P63073); test: blockers of eIF4G binding by eIF4E – biochemical, TR-FRET, dose response (AID 855); format: functional;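 further: potency for disrupting eIF4E binding to eIF4GI seen as loss of FRET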
Eukaryotic translation initiation factor 4E, sequence (P63073 whole entry): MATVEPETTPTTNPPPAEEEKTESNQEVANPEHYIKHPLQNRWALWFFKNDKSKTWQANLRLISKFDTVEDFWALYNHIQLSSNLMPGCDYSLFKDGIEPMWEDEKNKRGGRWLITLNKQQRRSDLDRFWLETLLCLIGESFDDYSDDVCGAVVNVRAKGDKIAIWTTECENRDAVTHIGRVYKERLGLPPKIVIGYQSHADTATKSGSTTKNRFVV

[12] = molecular target: Induced myeloid leukemia cell differentiation protein Mcl-1 (Homo sapiens, UniProt Q07820); format: functional
Induced myeloid leukemia cell differentiation protein Mcl-1, sequence (Q07820 whole entry, the tested form may be a part): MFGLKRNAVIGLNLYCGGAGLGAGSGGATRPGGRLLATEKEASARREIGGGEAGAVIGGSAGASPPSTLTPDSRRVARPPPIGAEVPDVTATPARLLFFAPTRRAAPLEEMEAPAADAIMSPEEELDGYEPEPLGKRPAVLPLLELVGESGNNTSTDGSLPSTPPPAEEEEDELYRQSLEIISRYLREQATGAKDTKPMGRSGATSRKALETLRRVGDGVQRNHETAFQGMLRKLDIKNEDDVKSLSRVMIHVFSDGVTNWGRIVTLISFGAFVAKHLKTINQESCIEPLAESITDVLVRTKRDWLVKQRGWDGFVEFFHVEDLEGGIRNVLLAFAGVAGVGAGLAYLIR

[13] = molecular target: T4, Carboxy-terminal domain RNA polymerase II polypeptide A small phosphatase 1 (Homo sapiens, UniProt Q9GZU7); test: CTDSP1 inhibitors, concentration-response, biochemical, absorbance readout, ultra-high-throughput screen actives (AID 540297); format: functional
T4 sequence (Q9GZU7 whole entry): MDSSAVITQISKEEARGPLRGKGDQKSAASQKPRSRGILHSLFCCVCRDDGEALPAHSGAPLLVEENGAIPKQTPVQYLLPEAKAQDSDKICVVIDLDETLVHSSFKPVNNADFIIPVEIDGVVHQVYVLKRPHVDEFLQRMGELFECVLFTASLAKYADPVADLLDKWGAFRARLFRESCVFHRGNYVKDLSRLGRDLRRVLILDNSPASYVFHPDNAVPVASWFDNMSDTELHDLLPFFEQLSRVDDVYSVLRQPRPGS

[14] = molecular target: T5, Caspase-6 (Homo sapiens, UniProt P55212); test: inhibition of CASP6 peptide cleavage – biochemical, VEID-R110 fluorescence, cherry-pick, dose response (AID 720632)
T5 sequence (P55212 whole entry): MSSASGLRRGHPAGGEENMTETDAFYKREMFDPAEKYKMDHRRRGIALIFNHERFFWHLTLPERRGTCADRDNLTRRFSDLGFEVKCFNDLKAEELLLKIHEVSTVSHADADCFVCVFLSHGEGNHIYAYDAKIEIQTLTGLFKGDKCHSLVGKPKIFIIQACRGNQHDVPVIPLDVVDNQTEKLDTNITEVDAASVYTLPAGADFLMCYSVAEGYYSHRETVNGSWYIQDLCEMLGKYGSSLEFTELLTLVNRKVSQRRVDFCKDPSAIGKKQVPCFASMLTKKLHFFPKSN

[15] = molecular target: Large T antigen (Simian virus 40, UniProt P03070); format: functional, Betapolyomavirus macacae;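 further: Confirmatory-stage PubChem screen for compounds that inhibit SV40 T antigen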
Large T antigen, sequence (P03070 whole entry): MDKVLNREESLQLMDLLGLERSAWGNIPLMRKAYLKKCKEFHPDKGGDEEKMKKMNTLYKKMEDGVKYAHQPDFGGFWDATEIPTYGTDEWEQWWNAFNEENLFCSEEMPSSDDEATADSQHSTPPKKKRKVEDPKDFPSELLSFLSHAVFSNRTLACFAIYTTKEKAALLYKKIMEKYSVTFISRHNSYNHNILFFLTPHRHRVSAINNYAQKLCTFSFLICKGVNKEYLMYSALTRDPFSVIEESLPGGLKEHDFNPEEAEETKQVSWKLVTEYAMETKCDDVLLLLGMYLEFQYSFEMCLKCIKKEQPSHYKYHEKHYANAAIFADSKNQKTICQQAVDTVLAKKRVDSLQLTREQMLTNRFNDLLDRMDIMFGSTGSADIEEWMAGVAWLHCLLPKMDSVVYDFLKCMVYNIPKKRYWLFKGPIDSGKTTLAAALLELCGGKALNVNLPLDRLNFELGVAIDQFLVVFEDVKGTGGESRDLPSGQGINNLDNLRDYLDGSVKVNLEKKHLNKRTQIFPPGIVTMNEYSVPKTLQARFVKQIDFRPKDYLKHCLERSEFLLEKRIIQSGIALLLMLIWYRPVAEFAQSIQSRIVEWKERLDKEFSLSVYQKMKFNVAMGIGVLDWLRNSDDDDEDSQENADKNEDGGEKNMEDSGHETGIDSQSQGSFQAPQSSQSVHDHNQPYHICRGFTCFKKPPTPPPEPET

[16] = molecular target: FAD-linked sulfhydryl oxidase ALR (Homo sapiens, UniProt P55789); test: ALR-catalysed DTT oxidation blockers – biochemical, H2O2 detection, luminescence, cherry-pick, dose response (AID 493248)
FAD-linked sulfhydryl oxidase ALR, sequence (P55789 whole entry): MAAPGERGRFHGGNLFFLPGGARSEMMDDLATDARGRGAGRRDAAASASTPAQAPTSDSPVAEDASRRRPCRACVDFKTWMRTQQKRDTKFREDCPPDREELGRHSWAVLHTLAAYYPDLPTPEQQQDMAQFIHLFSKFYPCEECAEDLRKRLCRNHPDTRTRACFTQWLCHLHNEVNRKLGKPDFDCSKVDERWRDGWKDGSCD

[17] = molecular target: Cytochrome P450 2D6 (Homo sapiens, UniProt P10635);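 further: CYP2D6 member of a cytochrome P450 panel assay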
Cytochrome P450 2D6, sequence (P10635 whole entry): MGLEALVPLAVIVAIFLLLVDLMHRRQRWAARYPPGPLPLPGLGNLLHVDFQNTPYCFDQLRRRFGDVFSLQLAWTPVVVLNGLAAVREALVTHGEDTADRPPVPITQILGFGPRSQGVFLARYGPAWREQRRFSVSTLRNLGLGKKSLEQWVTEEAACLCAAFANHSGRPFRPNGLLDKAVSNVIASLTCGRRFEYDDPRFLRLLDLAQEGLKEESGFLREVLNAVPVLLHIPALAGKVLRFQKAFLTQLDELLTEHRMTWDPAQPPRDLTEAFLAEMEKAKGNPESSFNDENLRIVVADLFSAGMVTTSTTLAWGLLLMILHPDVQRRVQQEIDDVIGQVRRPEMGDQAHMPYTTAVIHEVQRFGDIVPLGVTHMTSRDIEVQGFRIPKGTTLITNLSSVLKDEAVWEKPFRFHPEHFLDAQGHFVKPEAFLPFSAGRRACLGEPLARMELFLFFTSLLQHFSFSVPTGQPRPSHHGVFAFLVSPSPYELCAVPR

[18] = molecular target: T6, Short transient receptor potential channel 4 (Mus musculus, UniProt Q9QUQ5); test: calcium entry via TRPC4 opening agents – cell-based, HEK293 TRPC4/mu-opioid, Fluo-4 calcium, dose response (AID 434937); format: functional
T6 sequence (Q9QUQ5 whole entry): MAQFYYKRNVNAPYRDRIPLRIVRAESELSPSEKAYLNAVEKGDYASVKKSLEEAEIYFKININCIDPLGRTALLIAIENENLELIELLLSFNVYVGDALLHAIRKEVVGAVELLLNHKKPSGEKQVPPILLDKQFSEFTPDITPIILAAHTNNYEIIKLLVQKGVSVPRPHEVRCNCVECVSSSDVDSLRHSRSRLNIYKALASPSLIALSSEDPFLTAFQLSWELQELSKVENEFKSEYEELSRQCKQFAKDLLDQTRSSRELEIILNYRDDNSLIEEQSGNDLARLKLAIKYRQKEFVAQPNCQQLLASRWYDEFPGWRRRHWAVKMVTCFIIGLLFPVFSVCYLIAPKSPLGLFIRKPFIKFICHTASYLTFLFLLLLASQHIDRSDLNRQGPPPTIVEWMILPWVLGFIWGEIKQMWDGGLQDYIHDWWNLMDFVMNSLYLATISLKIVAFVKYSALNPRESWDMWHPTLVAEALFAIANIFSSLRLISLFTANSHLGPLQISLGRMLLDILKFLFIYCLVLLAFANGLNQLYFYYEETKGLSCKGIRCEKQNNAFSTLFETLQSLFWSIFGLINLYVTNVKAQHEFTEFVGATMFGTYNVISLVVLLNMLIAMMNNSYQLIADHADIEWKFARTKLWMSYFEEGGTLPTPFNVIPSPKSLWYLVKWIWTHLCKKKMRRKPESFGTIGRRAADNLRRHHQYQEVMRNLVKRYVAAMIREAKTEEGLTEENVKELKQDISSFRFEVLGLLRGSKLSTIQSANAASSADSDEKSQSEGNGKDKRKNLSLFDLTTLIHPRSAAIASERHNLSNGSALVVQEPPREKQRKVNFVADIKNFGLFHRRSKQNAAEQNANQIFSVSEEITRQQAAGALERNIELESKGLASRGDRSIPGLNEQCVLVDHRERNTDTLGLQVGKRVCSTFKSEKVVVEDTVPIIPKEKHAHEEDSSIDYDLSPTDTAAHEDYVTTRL

In the case of `O=C1c2ccccc2CCCC12N=NCC2c1cccc2ccccc12` (configuration not stated), the EC50 [1] is reported as 3.31 µM (active) and the EC50 [2] is reported as > 29.9 µM (not active).
With `CCOC(=O)C(CC)Sc1ccc2nnc(-c3cccnc3)n2n1` (configuration not stated) the EC50 [3] was > 195 µM (not active) and the EC50 [4] was > 50 µM (active).
With `Oc1ccc(C(=S)N2CCN(c3cccc(Cl)c3)CC2)cc1` the IC50 [5] was 81 µM (active).
With `Cc1ccc(CCNC(=O)c2cc(S(=O)(=O)N3CCCCC3)c[nH]2)cc1` the EC50 [4] was > 50 µM (active).
In the case of `C=C(C)Cn1c(C)cc(C)c(S(=O)(=O)c2ccccc2C)c1=O`, the EC50 [1] is reported as 5.9 µM (active) and the EC50 [2] is reported as > 29.9 µM (not active).
In the case of `Cn1nc(-c2ccc(N3CCOCC3)c(NS(=O)(=O)c3ccccc3)c2)c2ccccc2c1=O`, the IC50 [6] is reported as > 80 µM (inactive).
With `CCOC(=O)c1sc(NC(=O)c2cc(-c3ccccc3C)nc3ccccc23)c(C#N)c1C` the EC50 [7] was 36.2 µM (active), the IC50 [6] was 62.1 µM (inactive) and the AC50 [8] was 0.693 µM (active). For the same compound, the EC50 [9] was 1.04 µM (active) and the EC50 [10] was > 150 µM (not active).
For `CCOC(=O)CSc1nnc(CSc2nc(C)cc(C)n2)n1Cc1ccco1`, the IC50 [11] was > 64 µM (inactive).
For `Cc1ccc(S(=O)(=O)NCC(=O)N(CC(=O)NCC2CCCO2)C2CCCC2)cc1` (configuration not stated), the IC50 [11] was > 64 µM (inactive).
In the case of `COc1ccc(-n2ncc3c(N4CCC(C(N)=O)CC4)ncnc32)cc1`, the IC50 [6] is reported as > 80 µM (inactive).
In the case of `O=C(CSc1ccsc1[N+](=O)[O-])Nc1cccc(F)c1`, the IC50 [12] is reported as 2.92 µM (active), the IC50 [13] is reported as 3.65 µM (active) and the IC50 [11] is reported as 50 µM (inactive). The AC50 [14] was 16.3 µM (active).
With `CC(C)CCn1c(=O)c2ccccc2n2c(=S)[nH]nc12` the IC50 [15] was 14.7 µM (active) and the IC50 [5] was 1.19 µM (active).
For `O=C(Nc1cccc([N+](=O)[O-])c1)Nc1cccs1`, the EC50 [4] was > 50 µM (active).
For `CN(C1CCCCC1)S(=O)(=O)c1cccc(C#N)c1`, the EC50 [1] was 3.58 µM (active) and the EC50 [2] was > 29.9 µM (not active).
For `Sc1nnc(Nc2ccccc2)s1`, the AC50 [16] was 1.91 µM (active) and the IC50 [5] was 0.892 µM (active).
With `COc1ccc(-c2c/c(=N\CC(=O)O)c3ccccc3o2)cc1.[O-][Cl+3]([O-])([O-])O` the EC50 [4] was > 50 µM (active).
With `COc1ccc(/C=N/n2c(S)nnc2-c2cccs2)cc1` the EC50 [7] was 15.6 µM (active), the AC50 [17] was 3.55 µM (inconclusive) and the EC50 [9] was 7.17 µM (active). For the same compound, the EC50 [10] was > 150 µM (not active) and the IC50 [11] was > 64 µM (inactive).
In the case of `COC(=O)C1=CCCN(C)C1` [ARECOLINE HYDROBROMIDE], the EC50 [1] is reported as 2.26 µM (active), the EC50 [18] is reported as 6.68 µM (active) and the EC50 [2] is reported as > 29.9 µM (not active).
